Measurements published in US20250041307A1, “Uses of Bicyclic Compounds for the Treatment of Diseases” (Athira Pharma, Inc., priority 2021, published 2025).

Legend:
[1] = In vitro stability in simulated gastric and intestinal fluids; type: in vitro ADME; settings: 37° C.; for SGF, compound remaining after 4 hours: simulated gastric fluid pH 1.2, 5 μM; for SGF + Enz, compound remaining after 4 hours: simulated gastric fluid with 3.2 mg/ml pepsin; for SGF + Enz, compound remaining after 4 hours / SIF, compound remaining after 4 hours: 5 μM; for SIF, compound remaining after 4 hours: simulated intestinal fluid pH 6.8 with 10 mg/ml pancreatin
Procedure: Bioavailability can be estimated by compound stability when exposed to conditions in the body. As an initial assessment of stability properties in a variety of conditions present in animals, exemplary compounds were tested for stability in a battery of simulated body compartments. Compounds were tested for stability in the following solutions: simulated gastric fluid (SGF: 34.2 mM NaCl, pH 1.2), simulated gastric fluid with the digestive enzyme pepsin (SGF+Enzyme: SGF with 3.2 mg/ml pepsin), simulated intestinal fluid with the mixture of enzymes in porcine pancreatin (SIF+Enzyme: 28.7 mM NaH2PO4, 105.7 mM NaCl, pH 6.8, 10 mg/ml pancreatin), rat plasma, and human plasma.
Test compounds were incubated at a final concentration of 5 μM in the above solutions at 37° C. with samples removed at the following time points: 0, 1, 2, and 4 hours. Reactions were stopped and prepared for quantification by addition of excess quench solution containing an internal standard (acetonitrile, 200 ng/mL bucetin). Test compound and internal standard in each sample was quantified by LC-MS/MS, and after internal normalization to bucetin, test compound concentration was expressed as a percentage of concentration at the 0-hour time point. Stability in the relevant test solution was then determined by the percent remaining at the 4-hour time point.

HGF/MET system = experiment: Phospho-MET ELISA; type: cell-based; settings: HEK293 cells; with 1 ng/mL recombinant HGF; 15 minutes; augmentation of MET phosphorylation (pMET ELISA)
Outline: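 Serum-starved (≥8 h) HEK293 cells treated with compound plus 1 ng/mL recombinant HGF for 15 min at 37° C in triplicate, then lysed in RIPA. Equal protein (50–100 μg, BCA-normalized) run in pMET sandwich ELISA, A450 read. Responses scaled 1–10 between 1 ng/mL and 10 ng/mL HGF means, using peak efficacy.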

[2] = tested on: hepatocyte (HepG2) cell cultures; experiment: Cytotoxicity assay (LDH release); type: cell-based; settings: HepG2 cells, 48 hours, 0.1 to 100 μM
Procedure: This experiment was designed to obtain a preliminary assessment of cytotoxicity.
HepG2 cells were plated in 96-well cell culture plates and allowed to attach overnight at 37° C., 5% CO2 in EMEM+10% FBS. Treatments were made in complete media (EMEM+10% FBS) and included a dilution series of test compounds from 0.1 to 100 μM. Known cytotoxin cerivastatin was used as a positive assay control and prepared at a final concentration of 0.5 μM.
Growth media was replaced with treatment media (EMEM+10% FBS containing test compound dissolved in DMSO) and cells were incubated with test compounds for 48 hours. At the end of the incubation period, supernatant media from each well was transferred to a new plate and LDH assay working solution was added. LDH assay solution undergoes a colorimetric reaction in proportion to the amount of lactate dehydrogenase (an intracellular protein that was only found in the media in the presence of lysed cells) in the media. Color reaction was quantified by measurement of absorbance at a wavelength of 490 nm.
The signal range of the assay was determined by no manipulation in a negative control treatment and full lysis of all cells in a lysis control sample. Compounds that increase the level of cytotoxicity more than 20% above negative control samples were considered cytotoxic in this assay.

[3] = Parallel artificial membrane permeability assay (PAMPA); type: in vitro ADME; settings: PBS, room temperature for 5 hours, 200 uM in donor well
Procedure: Bioavailable drugs must permeate the cellular membranes of the lining of the digestive tract. To estimate the penetrability of exemplary compounds, the in vitro parallel artificial membrane permeability assay (PAMPA) was utilized.
Test compounds must have a standard curve in the final read plate to determine partitioned concentration of each drug. A 6-point standard curve was prepared for each compound from 0 to 200 μM in phosphate-buffered saline (PBS).
Test compound solution (300 μL in PBS) was added to the donor (bottom) well of the PAMPA plate in 5 replicates and PBS vehicle (200 μL) was added to the acceptor (top) wells of appropriate wells to match the loading of the donor plate. The bottom and top of the PAMPA plates were then sandwiched together. The PAMPA plates were then incubated at room temperature for 5 hours. After incubation, 150 μL of donor solution was added to a UV compatible plate containing the corresponding standard curve. 150 μL of acceptor well solution was added adjacent to the corresponding standard curve and donor well samples for that compound. The plate was then read using a UV plate reader.
Permeability and membrane retention were then calculated based on the following formulas:
where: • A=filter area (0.3 cm^2); • VD=donor well volume (0.3 mL); • VA=acceptor well volume (0.2 mL); • t=incubation time (seconds); • CA(t)=compound concentration in acceptor well at time t; • CD(t)=compound concentration in donor well at time t; and
where: • CD(t), VD, CA(t), and VA are as defined for equation 1, and • C0=initial concentration in donor well (200 uM).

Structure (SMILES) | Papp at 5 h, 200 uM [3] | SGF, compound remaining after 4 hours [1] | SGF + Enz, compound remaining after 4 hours [1] | SIF, compound remaining after 4 hours [1] | Potency (HGF/MET system) | Cytotoxicity [2]
CCC(C)CN1CC2N(C(=O)c3ccc(C(F)(F)F)cc3)CCC(=O)N2[C@@H](C)C1=O (stereo partly drawn) [Compound 1a] | > 2 ×10⁻⁶ cm/s | ++++ (++++ indicates 100% compound remaining after 4 hours) | ++++ (++++ indicates 100% compound remaining after 4 hours) | ++++ (++++ indicates 100% compound remaining after 4 hours) | ++++ (++++ indicates maximum potency at or above 0.1 nM) | ++++ (++++ indicates non-toxic at 100 μM)
CCC(C)CN1CC2N(Cc3ccc(C(F)(F)F)cc3)CCC(=O)N2[C@@H](C)C1=O (stereo partly drawn) [Compound 5a] | < 2 ×10⁻⁶ cm/s | +++ (+++ indicates 80-99% compound remaining after 4 hours) | + (+ indicates 20-39% compound remaining after 4 hours) | +++ (+++ indicates 80-99% compound remaining after 4 hours) | + (+ indicates maximum potency at or above 100 nM) | ++++ (++++ indicates non-toxic at 100 μM)
CCC(C)CN1CC2N(C(=O)c3ccc(O)cc3)CCC(=O)N2[C@@H](C)C1=O (stereo partly drawn) [Compound 8a] | > 10 ×10⁻⁶ cm/s | ++++ (++++ indicates 100% compound remaining after 4 hours) | +++ (+++ indicates 80-99% compound remaining after 4 hours) | +++ (+++ indicates 80-99% compound remaining after 4 hours) | + (+ indicates maximum potency at or above 100 nM) | ++++ (++++ indicates non-toxic at 100 μM)
CCC(C)CN1CC2N(C(=O)c3ccc(F)cc3)CCC(=O)N2C(C)C1=O (stereo not drawn) [Compound 11, 1-(4-fluorobenzoyl)-6-methyl-8-(2-methylbutyl)hexahydro-4H-pyrazino[1,2-a]pyrimidine-4,7(6H)-dione] | > 2 ×10⁻⁶ cm/s | +++ (+++ indicates 80-99% compound remaining after 4 hours) | +++ (+++ indicates 80-99% compound remaining after 4 hours) | ++++ (++++ indicates 100% compound remaining after 4 hours) | +++ (+++ indicates maximum potency at or above 1 nM) | ++++ (++++ indicates non-toxic at 100 μM)
CCCCN1CC2N(C(=O)c3ccc(OC(F)F)cc3)CCC(=O)N2C(C)C1=O (stereo not drawn) [Compound 17] | > 2 ×10⁻⁶ cm/s | +++ (+++ indicates 80-99% compound remaining after 4 hours) | +++ (+++ indicates 80-99% compound remaining after 4 hours) | +++ (+++ indicates 80-99% compound remaining after 4 hours) | +++ (+++ indicates maximum potency at or above 1 nM) | ++++ (++++ indicates non-toxic at 100 μM)
CC1C(=O)N(CCC2CCCC2)CC2N(C(=O)c3ccc(C(F)(F)F)cc3)CCC(=O)N12 (stereo not drawn) [Compound 19] | < 2 ×10⁻⁶ cm/s | +++ (+++ indicates 80-99% compound remaining after 4 hours) | ++ (++ indicates 40-79% compound remaining after 4 hours) | + (+ indicates 20-39% compound remaining after 4 hours) | +++ (+++ indicates maximum potency at or above 1 nM) | ++++ (++++ indicates non-toxic at 100 μM)
C=CCCN1CC2N(C(=O)c3ccc(C(F)(F)F)cc3)CCC(=O)N2C(C)C1=O (stereo not drawn) [Compound 22] | < 2 ×10⁻⁶ cm/s | +++ (+++ indicates 80-99% compound remaining after 4 hours) | +++ (+++ indicates 80-99% compound remaining after 4 hours) | +++ (+++ indicates 80-99% compound remaining after 4 hours) | +++ (+++ indicates maximum potency at or above 1 nM) | ++++ (++++ indicates non-toxic at 100 μM)

Now from value to molecule, other results behind:

Papp at 5 h, 200 uM [3] | Structure (SMILES) | SGF, compound remaining after 4 hours [1] | SGF + Enz, compound remaining after 4 hours [1] | SIF, compound remaining after 4 hours [1] | Potency (HGF/MET system) | Cytotoxicity [2]
< 2 ×10⁻⁶ cm/s | CCC(C)CN1CC2N(C(=O)c3ccc(OC(F)F)cc3)CCC(=O)N2[C@@H](C)C1=O (stereo partly drawn) [Compound 2a] | ++++ (++++ indicates 100% compound remaining after 4 hours) | +++ (+++ indicates 80-99% compound remaining after 4 hours) | ++++ (++++ indicates 100% compound remaining after 4 hours) | ++ (++ indicates maximum potency at or above 10 nM) | ++++ (++++ indicates non-toxic at 100 μM)
< 2 ×10⁻⁶ cm/s | CCC(C)CN1CC2N(Cc3ccc(OC(F)F)cc3)CCC(=O)N2[C@@H](C)C1=O (stereo partly drawn) [Compound 6a] | +++ (+++ indicates 80-99% compound remaining after 4 hours) | + (+ indicates 20-39% compound remaining after 4 hours) | ++ (++ indicates 40-79% compound remaining after 4 hours) | + (+ indicates maximum potency at or above 100 nM) | ++++ (++++ indicates non-toxic at 100 μM)
> 10 ×10⁻⁶ cm/s | CCC(C)CN1CC2N(Cc3ccc(O)nc3)CCC(=O)N2[C@@H](C)C1=O (stereo partly drawn) [Compound 7a] | ++++ (++++ indicates 100% compound remaining after 4 hours) | +++ (+++ indicates 80-99% compound remaining after 4 hours) | ++ (++ indicates 40-79% compound remaining after 4 hours) | ++ (++ indicates maximum potency at or above 10 nM) | ++++ (++++ indicates non-toxic at 100 μM)
< 2 ×10⁻⁶ cm/s | CCC(C)CN1CC2N(C(=O)c3ccc(C(F)(F)F)c(Cl)c3)CCC(=O)N2C(C)C1=O (stereo not drawn) [Compound 12, 1-(3-chloro-4-(trifluoromethyl)benzoyl)-6-methyl-8-(2-methylbutyl)hexahydro-4H-pyrazino[1,2-a]pyrimidine-4,7(6H)-dione] | +++ (+++ indicates 80-99% compound remaining after 4 hours) | +++ (+++ indicates 80-99% compound remaining after 4 hours) | ++ (++ indicates 40-79% compound remaining after 4 hours) | ++ (++ indicates maximum potency at or above 10 nM) | ++++ (++++ indicates non-toxic at 100 μM)
< 2 ×10⁻⁶ cm/s | CC1C(=O)N(CCC2CCC2)CC2N(C(=O)c3ccc(C(F)(F)F)cc3)CCC(=O)N12 (stereo not drawn) [Compound 20] | +++ (+++ indicates 80-99% compound remaining after 4 hours) | +++ (+++ indicates 80-99% compound remaining after 4 hours) | +++ (+++ indicates 80-99% compound remaining after 4 hours) | + (+ indicates maximum potency at or above 100 nM) | ++++ (++++ indicates non-toxic at 100 μM)
